According to EP4818168A1, “FUSED RING COMPOUND, PHARMACEUTICAL COMPOSITION THEREOF AND USE THEREOF” (priority 2023, dated 2025):
Like-named read-outs stand apart in the source and are kept apart here.

Assays:
H82 cells = test: cells; assay type: cell-based; conditions: Homo sapiens
Procedure, shortened: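 After 6 days' compound treatment at 37 °C (final DMSO 0.1%, RPMI1640/10% FBS), viable H82 cells were quantified by ATP-dependent CellTiter-Glo luminescence. Remaining activity was calculated against DMSO and medium wells, and a sigmoidal fit gave IC50.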

AURKA = target: T1, AURKA (Homo sapiens, UniProt O14965); assay type: cell-based
T1 construct: endogenous in cells; host or cells: Jurkat cells
T1 sequence (O14965 1-403): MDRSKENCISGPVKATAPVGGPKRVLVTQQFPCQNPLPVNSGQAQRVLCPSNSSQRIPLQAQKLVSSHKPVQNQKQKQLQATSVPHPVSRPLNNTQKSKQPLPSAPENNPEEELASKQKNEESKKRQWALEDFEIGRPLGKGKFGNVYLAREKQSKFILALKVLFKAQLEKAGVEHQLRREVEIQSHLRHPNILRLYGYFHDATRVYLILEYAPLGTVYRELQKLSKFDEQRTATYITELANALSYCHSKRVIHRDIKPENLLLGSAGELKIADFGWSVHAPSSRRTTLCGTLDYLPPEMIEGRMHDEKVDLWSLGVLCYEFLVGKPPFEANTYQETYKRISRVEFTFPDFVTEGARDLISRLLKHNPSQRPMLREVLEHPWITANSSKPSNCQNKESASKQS
Procedure, shortened: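 AURKA degradation read by western blot: band signal, fluorescent or chemiluminescent, curve-fitted to derive DC50. Cells were Jurkat, plated at 1×10^6 cells/500 µL with compound, then lysed and blotted onto nitrocellulose, primary antibody overnight at 4°C.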

[1] = NCI-H82, read-out: IC50 in H82 Cells
[2] = NCI-H82, H82 cells, 4000 cells/well, CellTiter-Glo, read-out: IC50 in H82 Cells
[3] = 100 nM compound, Jurkat cells, 24 h, Table 2
[4] = 1 µM compound, Jurkat cells, 24 h, Table 2

SMILES | IC50 (H82 cells; [1]) | Percentage of AURKA Degradation Induced by 100 nM Compound in Jurkat Cells (AURKA) | Percentage of AURKA Degradation Induced by 1 µM Compound in Jurkat Cells (AURKA) | IC50 (H82 cells; [2]) | Percentage of AURKA Degradation Induced by 100 nM Compound in Jurkat Cells (AURKA; [3]) | Percentage of AURKA Degradation Induced by 1 µM Compound in Jurkat Cells (AURKA; [4])
O=C1CCN(c2ccc(N3CCC(O)(CN4CCN(C56CC(Nc7ncc8c(n7)-c7ccc(Cl)cc7C(c7c(F)cccc7F)=NC8)(C5)C6)C(=O)C4)CC3)nc2)C(=O)N1 [Compound A290] | < 1 µM | ++ (key: +: Degradation ≤ 30%; ++: 30% < Degradation ≤ 70%; +++: Degradation > 70%) | +++ (key: +: Degradation ≤ 30%; ++: 30% < Degradation ≤ 70%; +++: Degradation > 70%) |  |  | 
O=C1CCN(c2cncc(N3CCN(CC#Cc4cccc(Nc5ncc6c(n5)-c5ccc(Cl)cc5C(c5c(F)cccc5F)=NC6)c4)CC3)c2)C(=O)N1 [Compound A131] |  |  |  | < 1 µM | +++ (Degradation > 70%) | +++ (Degradation > 70%)
O=C1CCN(c2ccc(N3CC4(CC(N5CCN(c6ccc(Nc7ncc8c(n7)-c7ccc(Cl)cc7C(c7nccs7)=NC8)cc6)C(=O)C5)CO4)C3)nc2)C(=O)N1 (stereo not drawn) [Compound A330] |  |  |  | < 1 µM | +++ (Degradation > 70%) | +++ (Degradation > 70%)
O=C1CCN(c2ccc(N3CCC4(CC3)CC(N3CCN(c5ccc(Nc6ncc7c(n6)-c6ccc(Cl)cc6C(c6nccs6)=NC7)cc5)C(=O)C3)CO4)nc2)C(=O)N1 (stereo not drawn) [Compound A337] |  |  |  | < 1 µM | +++ (Degradation > 70%) | +++ (Degradation > 70%)
Cc1c(N2CCC(N3Cc4ccc(Nc5ncc6c(n5)-c5ccc(Cl)cc5C(c5c(F)cccc5F)=NC6)cc4C3)CC2)cccc1N1CCC(=O)NC1=O [Compound A179] |  |  |  | < 1 µM | ++ (30% < Degradation ≤ 70%) | ++ (30% < Degradation ≤ 70%)
CN1CCN(CC2CN(c3cccc(N4CCC(=O)NC4=O)c3)C2)Cc2cc(Nc3ncc4c(n3)-c3ccc(Cl)cc3C(c3c(F)cccc3F)=NC4)ccc21 [Compound A236] |  |  |  | < 1 µM | +++ (Degradation > 70%) | ++ (30% < Degradation ≤ 70%)
O=C1CCN(c2ccc(N3CCC(N4C5COCC4CN(c4ccc(Nc6ncc7c(n6)-c6ccc(Cl)cc6C(c6c(F)cccc6F)=NC7)cc4)C5)CC3)nc2)C(=O)N1 [Compound A357] |  |  |  | < 1 µM | ++ (30% < Degradation ≤ 70%) | + (Degradation ≤ 30%)
Cc1c(N2CCN(CCC#Cc3cccc(Nc4ncc5c(n4)-c4ccc(Cl)cc4C(c4c(F)cccc4F)=NC5)c3)CC2)cccc1N1CCC(=O)NC1=O [Compound A129] |  |  |  | < 1 µM | +++ (Degradation > 70%) | +++ (Degradation > 70%)
O=C1CCN(c2ccc(N3CC4(CC(N5CCN(C67CC(Nc8ncc9c(n8)-c8ccc(Cl)cc8C(c8c(F)cccc8F)=NC9)(C6)C7)C(=O)C5)C4)C3)nc2)C(=O)N1 [Compound A298] |  |  |  | < 1 µM | +++ (Degradation > 70%) | +++ (Degradation > 70%)
O=C1CCN(c2cccc(N3CCN(C4CN(c5cccc(Nc6ncc7c(n6)-c6ccc(Cl)cc6C(c6c(F)cccc6F)=NC7)c5)C4)CC3)c2)C(=O)N1 [Compound A164] |  |  |  | < 1 µM | ++ (30% < Degradation ≤ 70%) | +++ (Degradation > 70%)
O=C1CCN(c2cnc(N3CCN(CCNC(=O)c4ccc(Nc5ncc6c(n5)-c5ccc(C7CC7)cc5C(c5c(F)cccc5F)=NC6)cc4)CC3)s2)C(=O)N1 [Compound A134] |  |  |  | < 1 µM | +++ (Degradation > 70%) | ++ (30% < Degradation ≤ 70%)
O=C1CCN(c2cccc(N3CCN(CCOc4cccc(Nc5ncc6c(n5)-c5ccc(Cl)cc5C(c5c(F)cccc5F)=NC6)c4)CC3)c2)C(=O)N1 [Compound A125] |  |  |  | < 1 µM | ++ (30% < Degradation ≤ 70%) | +++ (Degradation > 70%)
CP(C)(=O)c1cc(N2CCC(=O)NC2=O)ccc1N1CCN(C(=O)C2CCN(c3ccc(Nc4ncc5c(n4)-c4ccc(Cl)cc4C(c4c(F)cccc4F)=NC5)cc3)CC2)CC1 [Compound A287] |  |  |  | < 1 µM | + (Degradation ≤ 30%) | + (Degradation ≤ 30%)
O=C1CCN(c2ccc(N3CCN(CC4(F)CN(c5ccc(Nc6ncc7c(n6)-c6ccc(Cl)cc6C(c6nccs6)=NC7)cc5)C4)CC3)nc2)C(=O)N1 [Compound A291] |  |  |  | < 1 µM | +++ (Degradation > 70%) | +++ (Degradation > 70%)
O=C1CCN(c2ccc(N3CCC4(CC3)CC(NC(=O)c3ccc(Nc5ncc6c(n5)-c5ccc(Cl)cc5C(c5ccccn5)=NC6)cc3)C4)nc2)C(=O)N1 [Compound A128] |  |  |  | < 1 µM | +++ (Degradation > 70%) | +++ (Degradation > 70%)
O=C1CCN(c2ccc(N3CCN(CC#Cc4cccc(Nc5ncc6c(n5)-c5ccc(Cl)cc5C(c5c(F)cccc5F)=NC6)c4)CC3)cc2)C(=O)N1 [Compound A99] |  |  |  | < 1 µM | ++ (30% < Degradation ≤ 70%) | + (Degradation ≤ 30%)
O=C1CCN(c2ccc(N3CCC4(CC3)CC(NC(=O)c3ccc(Nc5ncc6c(n5)-c5ccc(C7CC7)cc5C(c5ccccc5Cl)=NC6)cc3)C4)nc2)C(=O)N1 [Compound A142] |  |  |  | < 1 µM | +++ (Degradation > 70%) | +++ (Degradation > 70%)
O=C1CCN(c2ccc(N3CCN(CC#Cc4ccc(Nc5ncc6c(n5)-c5ccc(Cl)cc5C(c5c(F)cccc5F)=NC6)cc4)CC3)cc2)C(=O)N1 [Compound A124] |  |  |  | < 1 µM | + (Degradation ≤ 30%) | + (Degradation ≤ 30%)
O=C1CCN(c2ccc(N3CCC4(CC3)CC(NC(=O)c3ccc(Nc5ncc6c(n5)-c5ccc(OC7CC7)cc5C(c5c(F)cccc5F)=NC6)cc3)C4)nc2)C(=O)N1 [Compound A168] |  |  |  | < 1 µM | +++ (Degradation > 70%) | +++ (Degradation > 70%)
Cc1c(N2CC(C#Cc3cccc(Nc4ncc5c(n4)-c4ccc(Cl)cc4C(c4c(F)cccc4F)=NC5)c3)C2)cccc1N1CCC(=O)NC1=O [Compound A156] | 1 to 10 µM | + (key: +: Degradation ≤ 30%; ++: 30% < Degradation ≤ 70%; +++: Degradation > 70%) | + (key: +: Degradation ≤ 30%; ++: 30% < Degradation ≤ 70%; +++: Degradation > 70%) |  |  | 
CN1CCN(CC2CCN(c3cccc(N4CCC(=O)NC4=O)c3)CC2)Cc2cc(Nc3ncc4c(n3)-c3ccc(Cl)cc3C(c3c(F)cccc3F)=NC4)ccc21 [Compound A239] |  |  |  | < 1 µM | +++ (Degradation > 70%) | +++ (Degradation > 70%)
Cn1nc(N2CCC(=O)NC2=O)c2cc(F)c(N3CCN(CC4CN(c5cccc(Nc6ncc7c(n6)-c6ccc(Cl)cc6C(c6c(F)cccc6F)=NC7)c5)C4)CC3)cc21 [Compound A245] |  |  |  | < 1 µM | +++ (Degradation > 70%) | +++ (Degradation > 70%)
